For 16 molecules, IC50 results are on record in US9732119B2, “Immunomodulators” (BRISTOL-MYERS SQUIBB COMPANY, priority 2014, dated 2017).

Positions of bridges follow the written chain, without caps; N, C: chain ends. Non-standard residues stand in square brackets, D forms with d. Residues, ends and D or L forms follow the SMILES beside them. Trp(1-CH2COOH) = N[C@@H](Cc1cn(CC(=O)O)c2ccccc12)C(=O)O; Phe(4-Cl) = N[C@@H](Cc1ccc(Cl)cc1)C(=O)O; Phe(4-F) = N[C@@H](Cc1ccc(F)cc1)C(=O)O; Hyp = O=C(O)[C@@H]1C[C@@H](O)CN1; Aad = N[C@@H](CCCC(=O)O)C(=O)O; NMeNle = CCCC[C@H](NC)C(=O)O; Pip = O=C(O)[C@@H]1CCCCN1; NMeA = CN[C@@H](C)C(=O)O; Orn = NCCC[C@H](N)C(=O)O; Dab = NCC[C@H](N)C(=O)O; Dap = NC[C@H](N)C(=O)O; Ava = NCCCCC(=O)O

The target of the assay is T1, PD-1-Ig binding to PD-L1-TVMV-His (PD-L1-His) (Homo sapiens, UniProt Q9NZQ7).
T1 construct: hPDL1(19-239)-TVMV-His; made in house; host or cells: HEK293T cells
Description: PD-1/PD-L1 Homogenous Time-Resolved Fluorescence (HTRF) binding assay. The settings on record: PD-1-Ig (20 nM) / PD-L1-His (10 nM). In short, it runs like this:
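HTRF competition: compound pre-incubated 15 min with PD-L1-His (10 nM final), then PD-1-Ig (20 nM final) added for 15 min in dPBS, 0.1% BSA, 0.05% Tween-20. Detection with Eu-cryptate anti-Ig (1 nM) and APC anti-His (20 nM) antibodies.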
On the technique in general: TR-FRET usually uses a lanthanide donor and a delayed reading to cut background.

T1 sequence (Q9NZQ7 with tags, fused parts or gaps): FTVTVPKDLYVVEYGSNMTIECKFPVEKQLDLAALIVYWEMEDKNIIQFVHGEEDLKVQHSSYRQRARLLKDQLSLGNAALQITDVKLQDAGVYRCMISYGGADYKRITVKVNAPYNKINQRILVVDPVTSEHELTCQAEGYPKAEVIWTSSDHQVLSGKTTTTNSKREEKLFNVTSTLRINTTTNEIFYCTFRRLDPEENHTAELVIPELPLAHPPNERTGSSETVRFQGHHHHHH

For orientation: IC50 means the concentration that inhibits the measured activity by half. A low value points to greater potency in that assay. As for `CCCC[C@H]1C(=O)N(C)[C@@H](CCCC)C(=O)N[C@@H](CC(C)C)C(=O)N[C@H](C(N)=O)CNCC(=O)N[C@@H](Cc2ccc(O)cc2)C(=O)N2CCCC[C@H]2C(=O)N[C@@H](CC(=O)O)C(=O)N2CCC[C@H]2C(=O)N[C@@H](CCC(N)=O)C(=O)N[C@@H](CC(C)C)C(=O)N2C[C@H](O)C[C@H]2C(=O)N[C@@H](Cc2c[nH]c3ccccc23)C(=O)N[C@@H](CC(N)=O)C(=O)N[C@@H](Cc2cn(CC(=O)O)c3ccccc23)C(=O)N1C` [Example 9034], the IC50 (range classes) fell in the range of 1 to 9.9 nM.

Where the note is “range classes”, `CCCC[C@H]1C(=O)N(C)[C@@H](CCCC)C(=O)N[C@@H](CC(C)C)C(=O)NCC(=O)NCC(=O)N[C@@H](Cc2ccc(O)cc2)C(=O)N(C)[C@@H](C)C(=O)N[C@@H](CC(N)=O)C(=O)N2CCC[C@H]2C(=O)N[C@@H](CN)C(=O)N[C@@H](CC(C)C)C(=O)N2C[C@H](O)C[C@H]2C(=O)N[C@@H](Cc2c[nH]c3ccccc23)C(=O)N[C@@H](CCN)C(=O)N[C@@H](Cc2cn(CC(=O)O)c3ccccc23)C(=O)N1C` [Example 5002] (cyclo([Dab][Trp(1-CH2COOH)][NMeNle][NMeNle]LGGY[NMeA]NP[Dap]L[Hyp]W)) gave an IC50 of 1 to 9.9 nM.

`CCCC[C@H]1C(=O)N(C)[C@@H](CCCC)C(=O)N[C@@H](CC(C)C)C(=O)NCCCCC(=O)N[C@@H](Cc2ccc(F)cc2)C(=O)N2CCCC[C@H]2C(=O)N[C@@H](CC(N)=O)C(=O)N2CCC[C@H]2C(=O)N[C@@H](CN)C(=O)N[C@@H](CCC(=O)O)C(=O)N2C[C@H](O)C[C@H]2C(=O)N[C@@H](Cc2c[nH]c3ccccc23)C(=O)N[C@@H](CCN)C(=O)N[C@@H](Cc2cn(CC(=O)O)c3ccccc23)C(=O)N1C` [Example 10543] (cyclo([Ava][Phe(4-F)][Pip]NP[Dap]E[Hyp]W[Dab][Trp(1-CH2COOH)][NMeNle][NMeNle]L)) showed an IC50 (range classes) of 1 to 9.9 nM.

Molecule `CCCC[C@H]1C(=O)N(C)[C@@H](CCCC)C(=O)N[C@@H](CC(C)C)C(=O)NCCCCC(=O)N[C@@H](Cc2ccc(O)cc2)C(=O)N(C)[C@@H](C)C(=O)N[C@@H](CC(N)=O)C(=O)N2CCC[C@H]2C(=O)N[C@@H](CN)C(=O)N[C@@H](CCC(=O)O)C(=O)N2C[C@H](O)C[C@H]2C(=O)N[C@@H](Cc2c[nH]c3ccccc23)C(=O)N[C@@H](CCN)C(=O)N[C@@H](Cc2cn(CC(=O)O)c3ccccc23)C(=O)N1C` [Example 10506] (cyclo([Ava]Y[NMeA]NP[Dap]E[Hyp]W[Dab][Trp(1-CH2COOH)][NMeNle][NMeNle]L)) came in with an IC50 (range classes) of 1 to 9.9 nM.

In turn, `CCCC[C@H]1C(=O)N(C)[C@@H](CCCC)C(=O)N[C@@H](CC(C)C)C(=O)NCCC[C@H](N)C(=O)N[C@@H](Cc2ccc(O)cc2)C(=O)N2CCCC[C@H]2C(=O)N[C@@H](CC(N)=O)C(=O)N2CCC[C@H]2C(=O)N[C@@H](CN)C(=O)N[C@@H](CCC(=O)O)C(=O)N2C[C@H](O)C[C@H]2C(=O)N[C@@H](Cc2c[nH]c3ccccc23)C(=O)N[C@@H](CCN)C(=O)N[C@@H](Cc2cn(CC(=O)O)c3ccccc23)C(=O)N1C` [Example 10549] (H-[Orn]Y[Pip]NP[Dap]E[Hyp]W[Dab][Trp(1-CH2COOH)][NMeNle][NMeNle]L; lactam 1-C) displayed an IC50 (range classes) of 10 to 99 nM.

`CCCC[C@H]1C(=O)N(C)[C@@H](CCCC)C(=O)N[C@@H](CCC(=O)O)C(=O)N[C@H](C(N)=O)CCCC(=O)N[C@@H](Cc2ccc(Cl)cc2)C(=O)N2CCCC[C@H]2C(=O)N[C@@H](CC(N)=O)C(=O)N2CCC[C@H]2C(=O)N[C@@H](CN)C(=O)N[C@@H](CC(C)C)C(=O)N2C[C@H](O)C[C@H]2C(=O)N[C@@H](Cc2c[nH]c3ccccc23)C(=O)N[C@@H](CCN)C(=O)N[C@@H](Cc2cn(CC(=O)O)c3ccccc23)C(=O)N1C` [Example 10557] ([Phe(4-Cl)][Pip]NP[Dap]L[Hyp]W[Dab][Trp(1-CH2COOH)][NMeNle][NMeNle]E[Aad]-NH2; lactam N-14): the IC50 (range classes) is 1 to 9.9 nM.

Under “range classes”, `CCCC[C@H]1C(=O)N(C)[C@@H](CCCC)C(=O)N[C@@H](CC(C)C)C(=O)N[C@H](C(N)=O)CCCC(=O)N[C@@H](Cc2ccc(F)cc2)C(=O)N2CCCC[C@H]2C(=O)N[C@@H](CC(N)=O)C(=O)N2CCC[C@H]2C(=O)N[C@@H](CN)C(=O)N[C@@H](CC(C)C)C(=O)N2C[C@H](O)C[C@H]2C(=O)N[C@@H](Cc2c[nH]c3ccccc23)C(=O)N[C@@H](CCN)C(=O)N[C@@H](Cc2cn(CC(=O)O)c3ccccc23)C(=O)N1C` [Example 10526] ([Phe(4-F)][Pip]NP[Dap]L[Hyp]W[Dab][Trp(1-CH2COOH)][NMeNle][NMeNle]L[Aad]-NH2; lactam N-14) had an IC50 of 10 to 99 nM.

`CCCC[C@H]1C(=O)N(C)[C@@H](CCCC)C(=O)N[C@@H](CC(C)C)C(=O)N[C@H](C(=O)NCC(N)=O)CCCC(=O)N[C@@H](Cc2ccc(O)cc2)C(=O)N2CCCC[C@H]2C(=O)N[C@@H](CC(N)=O)C(=O)N2CCC[C@H]2C(=O)N[C@@H](CN)C(=O)N[C@@H](CCC(=O)O)C(=O)N2C[C@H](O)C[C@H]2C(=O)N[C@@H](Cc2c[nH]c3ccccc23)C(=O)N[C@@H](CCN)C(=O)N[C@@H](Cc2cn(CC(=O)O)c3ccccc23)C(=O)N1C` [Example 10508] (Y[Pip]NP[Dap]E[Hyp]W[Dab][Trp(1-CH2COOH)][NMeNle][NMeNle]L[Aad]G-NH2; lactam N-14): the IC50 (range classes) lay in the range of 10 to 99 nM.

Regarding `CCCC[C@H]1C(=O)N(C)[C@@H](CCCC)C(=O)N[C@@H](CC(C)C)C(=O)NCCC[C@H](N)C(=O)N[C@@H](Cc2ccc(F)cc2)C(=O)N2CCCC[C@H]2C(=O)N[C@@H](CC(N)=O)C(=O)N2CCC[C@H]2C(=O)N[C@@H](CN)C(=O)N[C@@H](CC(C)C)C(=O)N2C[C@H](O)C[C@H]2C(=O)N[C@@H](Cc2c[nH]c3ccccc23)C(=O)N[C@@H](CCN)C(=O)N[C@@H](Cc2cn(CC(=O)O)c3ccccc23)C(=O)N1C` [Example 10550] (H-[Orn][Phe(4-F)][Pip]NP[Dap]L[Hyp]W[Dab][Trp(1-CH2COOH)][NMeNle][NMeNle]L; lactam 1-C), the IC50 (range classes) was 10 to 99 nM.

With `CCCC[C@H]1C(=O)N(C)[C@@H](CCCC)C(=O)N[C@@H](C)C(=O)N[C@H](C(=O)NCC(N)=O)CCNCC(=O)N[C@@H](Cc2ccc(O)cc2)C(=O)N(C)[C@@H](C)C(=O)N[C@@H](CC(=O)O)C(=O)N2CCC[C@H]2C(=O)N[C@@H](Cc2cnc[nH]2)C(=O)N[C@@H](CCC(N)=O)C(=O)N2C[C@H](O)C[C@H]2C(=O)N[C@@H](Cc2c[nH]c3ccccc23)C(=O)N[C@@H](CO)C(=O)N[C@@H](Cc2cn(CC(=O)O)c3ccccc23)C(=O)N1C` [Example 10015], the IC50 (range classes) was 1 to 9.9 nM.

Consider `C=C(C)C[C@@H]1NC(=O)[C@H](C)N(C)C(=O)[C@H](Cc2ccccc2)NC(=O)CNC[C@@H](C(=O)NCC(N)=O)NC(=O)[C@H](CC(C)C)NC(=O)[C@H](CCCC)N(C)C(=O)[C@H](CCCC)N(C)C(=O)[C@H](Cc2c[nH]c3ccccc23)NC(=O)[C@H](CC(C)C)NC(=O)[C@H](Cc2c[nH]c3ccccc23)NC(=O)[C@@H]2CCCN2C(=O)[C@H](CC(C)C)NC(=O)[C@H](CC(C)C)NC(=O)[C@@H]2CCCN2C1=O` [Example 10005], for which the IC50 (numeric values) was determined as 10000 nM.

The molecule `CCCC[C@H]1C(=O)N(C)[C@@H](CCCC)C(=O)N[C@@H](CC(C)C)C(=O)NCCC[C@H](N)C(=O)N[C@@H](Cc2ccc(OC)cc2)C(=O)N2CCCC[C@H]2C(=O)N[C@@H](CC(N)=O)C(=O)N2CCC[C@H]2C(=O)N[C@@H](CN)C(=O)N[C@@H](CC(C)C)C(=O)N2C[C@H](O)C[C@H]2C(=O)N[C@@H](Cc2c[nH]c3ccccc23)C(=O)N[C@@H](CCN)C(=O)N[C@@H](Cc2cn(CC(=O)O)c3ccccc23)C(=O)N1C` [Example 10518] (H-[Orn]Y(Me)[Pip]NP[Dap]L[Hyp]W[Dab][Trp(1-CH2COOH)][NMeNle][NMeNle]L; lactam 1-C) came in with an IC50 (range classes) of 10 to 99 nM.

Take `CCCC[C@H]1C(=O)N(C)[C@@H](CCCC)C(=O)N[C@@H](CC(C)C)C(=O)NCCC[C@H](N)C(=O)N[C@@H](Cc2ccc(O)cc2)C(=O)N2CCCC[C@H]2C(=O)N[C@@H](CC(N)=O)C(=O)N2CCC[C@H]2C(=O)N[C@@H](CN)C(=O)N[C@@H](CC(C)C)C(=O)N2CCC[C@H]2C(=O)N[C@@H](Cc2c[nH]c3ccccc23)C(=O)N[C@@H](CCN)C(=O)N[C@@H](Cc2cn(CC(=O)O)c3ccccc23)C(=O)N1C` [Example 10511] (H-[Orn]Y[Pip]NP[Dap]LPW[Dab][Trp(1-CH2COOH)][NMeNle][NMeNle]L; lactam 1-C): the IC50 (range classes) was in the range of 100 to 10000 nM.

Under “range classes”, `CCCC[C@H]1C(=O)N(C)[C@@H](CCCC)C(=O)N[C@@H](CC(C)C)C(=O)N[C@H](C(=O)NCC(N)=O)CNCC(=O)N[C@@H](Cc2ccc(O)cc2)C(=O)N(C)[C@@H](C)C(=O)N[C@@H](CC(N)=O)C(=O)N2CCC[C@H]2C(=O)N[C@@H](Cc2cnc[nH]2)C(=O)N[C@@H](CCC(N)=O)C(=O)N2C[C@H](O)C[C@H]2C(=O)N[C@@H](Cc2c[nH]c3ccccc23)C(=O)N[C@@H](CO)C(=O)N[C@@H](Cc2c[nH]c3ccccc23)C(=O)N1C` [Example 10004] displayed a 50% inhibitory concentration (IC50) of 1 to 9.9 nM.

On to `CCCC[C@H]1C(=O)N(C)[C@@H](CCCC)C(=O)N[C@@H](CC(C)C)C(=O)N[C@H](C(N)=O)CNCC(=O)N[C@@H](Cc2ccc(F)cc2)C(=O)N2CCCC[C@H]2C(=O)N[C@@H](CC(N)=O)C(=O)N2CCC[C@H]2C(=O)N[C@@H](CCC(N)=O)C(=O)N[C@@H](CCC(=O)O)C(=O)N2C[C@H](O)C[C@H]2C(=O)N[C@@H](Cc2c[nH]c3ccccc23)C(=O)N[C@@H](CC(N)=O)C(=O)N[C@@H](Cc2cn(CC(=O)O)c3ccccc23)C(=O)N1C` [Example 9032], for which, for the setting “range classes”, the IC50 lay within 1 to 9.9 nM.

The molecule `CCCC[C@H]1C(=O)N(C)[C@@H](CCCC)C(=O)N[C@@H](CC(C)C)C(=O)N[C@H](C(N)=O)CNCC(=O)N[C@@H](Cc2ccc(F)cc2)C(=O)N2CCCC[C@H]2C(=O)N[C@@H](CC(=O)O)C(=O)N2CCC[C@H]2C(=O)N[C@@H](CCC(N)=O)C(=O)N[C@@H](CC(=O)O)C(=O)N2C[C@H](O)C[C@H]2C(=O)N[C@@H](Cc2c[nH]c3ccccc23)C(=O)N[C@@H](CC(N)=O)C(=O)N[C@@H](Cc2cn(CC(=O)O)c3ccccc23)C(=O)N1C` [Example 9039] came in with a 50% inhibitory concentration (IC50) (range classes) of 1 to 9.9 nM.
